The values that follow come from PMC9718554, “Discovery of a fragment hit compound targeting D-Ala:D-Ala ligase of bacterial peptidoglycan biosynthesis” (Journal of Enzyme Inhibition and Medicinal Chemistry, 2022).

Read-outs that look alike come from different tables or passages of the source.

The target in this test is T1, E. coli DdlB enzyme (D-alanine:D-alanine ligase) (Escherichia coli, UniProt P07862).
T1 construct: made in house; host or cells: E. coli
The test is described as follows: biochemical. Particulars: for remaining activity at 1900 µM: tested concentration 1.9 mM; for remaining activity at 2500 µM: tested concentration 2.5 mM; for remaining activity at 2000 µM: tested concentration 2.0 mM; for remaining activity at 2100 µM: tested concentration 2.1 mM; for remaining activity at 2200 µM: tested concentration 2.2 mM; for remaining activity at 2800 µM: tested concentration 2.8 mM; for remaining activity at 5000 µM: at 5 mM, read-out: DdlB inhibition, RA (Residual Activity); for remaining activity at 3100 µM: tested concentration 3.1 mM; for remaining activity at 1700 µM: tested concentration 1.7 mM; for remaining activity at 2300 µM: tested concentration 2.3 mM; for remaining activity at 2600 µM: tested concentration 2.6 mM; for remaining activity at 2400 µM: tested concentration 2.4 mM; for remaining activity at 2900 µM: tested concentration 2.9 mM.

[1] abbreviates: fragment library screening, read-out: DdlB RA.
Setting [2] is: residual activity of DdlB, fragment library screening, read-out: DdlB RA.
Setting [3] is: residual activity, read-out: DdlB RA.

For `O=C(NCc1ccncc1)[C@H]1CC=CC[C@H]1C(=O)O` [Compound Y204-2545], under setting [1], the remaining activity at 1900 µM worked out at 75%. On to `CC(C)N1CCC(CCC(=O)O)CC1` [FF20-1518], for which the remaining activity at 2500 µM (read-out: DdlB RA) worked out at 108%. As to `N#CCc1ccsc1` [FLD183], the remaining activity at 2500 µM under setting [2] came to 100%. As for `COC(=O)Cn1nc(C(F)F)c2c1CCCC2` [Compound Y504-8961], where the note is “read-out: DdlB RA”, the remaining activity at 2000 µM was found to be 94%. Regarding `O=C(O)C1=CC(c2cc(F)cc(F)c2)n2nnnc2N1` (stereo not shown) [Compound J043-0061], the remaining activity at 2100 µM under setting [3] turned out to be 101%. As to `CC(=O)N1CC(c2nc(C)no2)C2(CNC2)C1` (stereo not shown) [SB57-1191], the remaining activity at 2200 µM (read-out: DdlB RA) is 69%. Turning to `O=C(O)c1cc(-c2cccnc2)nc2ccccc12` [Compound Y042-7719], the remaining activity at 2000 µM under setting [1] was determined as 85%. As to `Cc1noc(-c2cccnc2Cl)n1` [Compound 8018-8637], the remaining activity at 2800 µM (read-out: DdlB RA) stood at 96%. As for `CC(O)C1CCN(Cc2ccc(Br)o2)CC1` (stereo not shown) [Compound T786-0030], the remaining activity at 2100 µM under setting [3] worked out at 94%. For the compound `Nc1ccc2nsnc2c1` [FLD147], the remaining activity at 2500 µM under setting [2] is 100%. Turning to `Cc1nn(C)cc1-c1ccnc2c(C(=O)O)cnn12` [Compound 17, 7–(1,3-Dimethyl-1H-pyrazol-4-yl)pyrazolo[1,5-a]pyrimidine-3-carboxylic acid], the “DdlB dose-response curve shape” value is listed as “Nonsigmoidal curve” and the remaining activity at 5000 µM was determined as 26%. With `CC(C(=O)NCc1cc(F)cc(F)c1)C1CCOCC1` (stereo not shown) [Compound S424-0231], the remaining activity at 2100 µM under setting [3] was 92%. Consider `CC1CN(S(=O)(=O)c2ccc(F)cc2)CC(C)O1` (stereo not shown) [Compound Y030-1235], for which, under setting [3], the remaining activity at 2000 µM stood at 93%. Take `Cc1c(S(=O)(=O)NC2CCCCCC2)cnn1C` [Compound Y502-6613]: the remaining activity at 1800 µM (residual activity, tested concentration 1.8 mM, read-out: DdlB RA) stood at 94%.

Regarding `O=C(O)CC1(CC(=O)Nc2cccnc2)CCCC1` [Compound 8016-0695], the remaining activity at 1900 µM under setting [1] was found to be 93%. As for `COc1ccc(-c2ccc(C(=O)O)o2)cc1` [FLD030], the remaining activity at 2500 µM under setting [2] is 100%. On to `Cc1ccc2nc3c(C(=O)O)cccn3c(=O)c2c1` [Compound C200-9601], for which the remaining activity at 2000 µM under setting [3] turned out to be 75%. With `COc1ccc(Br)cc1OC` [FLD159], under setting [2], the remaining activity at 2500 µM came out at 98%. On the same count and under the same terms, as for `CC(C)c1cccc(O)c1` [FLD176], the figure is 95%. On to `CCS(=O)(=O)N1CCCc2cc(C(=O)NC)ccc21` [Compound D348-0142], for which, under setting [3], the remaining activity at 2100 µM was 92%. Consider `Cn1cnc2c(c1=O)CCC(N)CC2` (stereo not shown) [FF20-0287], for which, for the setting “read-out: DdlB RA”, the remaining activity at 3100 µM stood at 91%. On to `COc1ccc2c(c1)C(=O)CCC2` [FLD008], for which the remaining activity at 2500 µM under setting [2] was 100%. As for `O=C(O)c1ccc(CN2CCCCC2)cc1` [FLD056], under setting [2], the remaining activity at 2500 µM stood at 100%.

As for `O=C1CC(c2cccc(O)c2)c2snc(C(=O)O)c2N1` (stereo not shown) [Compound 8020-5288], under setting [3], the remaining activity at 1700 µM was found to be 114%. Turning to `CCn1cc(Br)c(C(=O)O)n1` [Compound Y501-6363], under setting [3], the remaining activity at 2300 µM was determined as 90%.

Consider `CC(=O)N1CC(=O)N(CCc2ccccc2)CC(O)C1` (stereo not shown) [SA85-1024], for which the remaining activity at 2200 µM under setting [3] came out at 95%.

For the compound `Oc1ccc(OCc2ccccc2)cc1` [FLD045], under setting [2], the remaining activity at 2500 µM was 100%.

With `O=C(Cc1nc(-c2ccccn2)n[nH]1)NCC1CCCO1` (stereo not shown) [Compound 8020-1329F], the remaining activity at 1700 µM under setting [3] amounted to 104%. For `c1ccc2c(c1)N(CN1CCCC1)CC21OCCO1` [Compound 5482-0050], for the setting “read-out: DdlB RA”, the remaining activity at 2300 µM came out at 94%. For `Nc1c(Cl)cc(S(N)(=O)=O)cc1Cl` [Compound 0772-0030], the remaining activity at 2100 µM (read-out: DdlB RA) was determined as 93%. As to `O=c1c(O)c(NC2CC2)c1=O` [Compound G317-0511], the remaining activity at 3300 µM (tested concentration 3.3 mM, read-out: DdlB RA) was found to be 90%. For the compound `Clc1cc(Cl)ncn1` [FLD117], under setting [2], the remaining activity at 2500 µM is 97%.

For the compound `CC(C)n1c(S(=O)(=O)O)nc2ccccc21` [Compound 4587-0081], the remaining activity at 2100 µM (read-out: DdlB RA) worked out at 83%. `Cc1c(C)c(C)c(S(=O)(=O)NC(C)C)c(C)c1C` [Compound Y206-5269]: the remaining activity at 2200 µM under setting [3] amounted to 77%. `N#Cc1cnn2c1NC(C1CC1)CC2C(F)(F)F` (stereo not shown) [Compound Y501-9194]: the remaining activity at 2300 µM (read-out: DdlB RA) worked out at 83%. For `CCn1cnnc1CC1CCCN(C(=O)c2ccco2)C1` (stereo not shown) [Compound T501-0329], the remaining activity at 2100 µM under setting [3] was 69%. On to `Cc1ccc(Nc2ncccc2S(N)(=O)=O)cc1` [Compound M784-3115], for which, under “read-out: DdlB RA”, the remaining activity at 1900 µM is 85%. For the compound `Cc1nnc(N)s1` [FLD150], the remaining activity at 2500 µM under setting [2] was determined as 95%. With `Oc1cc(-c2ccccc2)n[nH]1` [Compound Y501-8801], the remaining activity at 3100 µM (read-out: DdlB RA) came to 102%. Regarding `Nc1cccc2ncccc12` [FLD054], the remaining activity at 2500 µM under setting [2] worked out at 94%. Regarding `Cn1c(-c2ccco2)nnc1S(=O)(=O)O` [Compound 8020-6142], the remaining activity at 2200 µM (read-out: DdlB RA) turned out to be 90%. As for `O=C(O)Cc1cccs1` [FLD146], the remaining activity at 2500 µM under setting [2] was 95%. With `O=S(=O)(O)CCOc1ccccc1` [Compound 0165-0458], for the setting “read-out: DdlB RA”, the remaining activity at 2500 µM is 100%.

Regarding `O=C(Nc1ccccc1C(=O)O)c1ccccc1` [Compound 0090-0118], the remaining activity at 2100 µM under setting [3] amounted to 101%. Consider `Cc1nc(N(C)C)ncc1C(=O)O` [Compound C430-1216], for which the remaining activity at 2800 µM (read-out: DdlB RA) is 88%. For the compound `O=C(O)c1cnn2c(-c3ccccc3)ccnc12` [Compound 9, 7-Phenylpyrazolo[1,5-a]pyrimidine-3-carboxylic acid], the remaining activity at 5000 µM is 90%. `CCS(=O)(=O)Nc1cc(C(C)(C)C)on1` [Compound Y206-0720]: the remaining activity at 2600 µM (read-out: DdlB RA) turned out to be 91%. For `O=C(O)c1ccnc(N2CCOCC2)c1` [Compound Y043-8163], the remaining activity at 2400 µM (read-out: DdlB RA) amounted to 89%. `CNc1ccccc1N` [FLD179]: under setting [2], the remaining activity at 2500 µM worked out at 84%.

Regarding `CC1(C(=O)O)CCCCC(=O)N1` (stereo not shown) [Compound S515-0278], the remaining activity at 2900 µM (read-out: DdlB RA) was found to be 93%. On to `O=C(O)c1nc2ccccc2nc1O` [Compound 8016-8257], for which the remaining activity at 2600 µM (read-out: DdlB RA) worked out at 97%.

With `O=C(O)[C@H](O)Cc1ccccc1` [FLD039], the remaining activity at 2500 µM under setting [2] came to 93%. For `CC(O)c1ccccc1` (stereo not shown) [FLD168], the remaining activity at 2500 µM under setting [2] amounted to 98%. For `O=C1C[C@H]2CN(S(=O)(=O)c3ccccc3)C[C@H]2CN1` [SB76-0562], under setting [3], the remaining activity at 2100 µM turned out to be 86%. As for `Cc1cccc(OCC(=O)NC(C)C(=O)O)c1` (stereo not shown) [Compound 1683-0903], the remaining activity at 2100 µM (read-out: DdlB RA) turned out to be 98%.

Take `CCOc1ccc([C@@H](CC(=O)O)NC(C)=O)cc1` [Compound 6705-0233]: the remaining activity at 2000 µM under setting [1] is 87%.

As to `O=C(O)Cn1nc(C(F)(F)F)c2c1CCCC2` [Compound F235-1104], the remaining activity at 2400 µM (read-out: DdlB RA) is 95%. As for `Cc1cc(Cl)nc(N)n1` [FLD046], under setting [2], the remaining activity at 2500 µM worked out at 79%. For `C#CC(=O)NCc1ccc(F)cc1F` [Compound T001-0851], the remaining activity at 2800 µM (read-out: DdlB RA) is 93%. Consider `COc1ccc(B(O)O)cc1F` [Compound 1222-0120], for which the remaining activity at 2900 µM (read-out: DdlB RA) turned out to be 93%. Consider `CCc1cccc(N)n1` [FLD162], for which the remaining activity at 2500 µM under setting [2] came to 100%. On to `CCS(=O)(=O)N1CCCC1c1ccc(C)cc1` (stereo not shown) [Compound D399-0123], for which the remaining activity at 2400 µM (read-out: DdlB RA) stood at 89%. For the compound `O=C(O)Cc1n[nH]c(-c2ccncc2)n1` [Compound 8019-7883], the remaining activity at 2500 µM (read-out: DdlB RA) came out at 97%.
